The test system of one data set is THP-1 monocytes. The data set is described as follows: Cytotoxicity by propidium iodide staining and flow cytometry. The class given is cell-based, human. The conditions noted are these: equivalent to 50-150 μg/mL PMB, 24 h. The protocol: (§1) As a cationic polypeptide, PMB is known to be effective in neutralizing LPS as early as in 1967, but its systemic application is hampered by dose-limiting nephro- and neurotoxicity. PMB manifests the toxicity via the increased membrane permeability, resulting in increased influx of ions and water and subsequent cell swelling and lysis. To test if the toxicity can be reduced by supplying PMB as a NP-bound form, THP-1 monocytes or J774a.1 macrophages were incubated with D-TZP or free PMB at a concentration equivalent to 50-150 μg/mL PMB for 24 h, stained with propidium iodide (PI), which penetrates damaged cell membrane but not intact membrane, and analyzed with flow cytometry. […] Substantial reduction of membrane damage is attributable to the surface-bound ZWC, which provides a negatively charged cloud beyond the remit of PMB due to the large size, attenuating direct exposure of PMB to cell membrane.
(§2) Cytotoxicity of PMB and D-TZP. Cytotoxic concentration range of free PMB was first determined with THP1-XBlue-MD2-CD14 cells by the MTT assay. […] The PI fluorescence of 10,000 cells was measured with the BD Accuri C6 flow cytometer (BD Biosciences, San Jose, CA) via the FL-2 detector. Nanoparticles and cell debris were excluded by gating, but all cell population (dead or alive) was analyzed. […]
Background: In flow cytometry, cells or beads pass a laser one at a time.

In a further data set the test system is J774a.1 macrophages. The data set is described as above. The class given is cell-based. The conditions noted are these: equivalent to 50-150 μg/mL PMB, 24 h. Here is the method: as §1, §2
Data set [1] has as its system Klebsiella pneumoniae NR-41920. The data set is described as follows: Effect on bacterial membrane (SEM). The conditions noted are these: 5×MIC for 1.5 h. It counts as cell-based. Here is the method:
Effect on bacterial membrane. […] The bacteria were collected by centrifugation at 5000 rcf for 10 min, fixed in 2.5% glutaraldehyde solution at 4° C., and placed on poly-1-lysine coated coverslip. After 1 h, the coverslip was rinsed three times with water (5 min each) and incubated in 2% Osmium tetroxide for 30 min. SEM imaging was performed as described in previous section.

For data set [2], the system named is cecal ligation and puncture (CLP) model. In words: Therapeutic efficacy in cecal ligation and puncture (CLP) polymicrobial sepsis model. The class given is in vivo, C57BL/6 mice. The conditions noted are these: IV 2 h post-CLP and every 2 days, max three times; D-TZP and TZP 10 mg/kg PMB eq., free PMB 5 mg/kg. The protocol: The efficacy of systemic […] was further tested in cecal ligation and puncture (CLP) model, which induces systemic inflammation by polymicrobial infection and thus simulates a clinically relevant septic state (Toscano, M. G. et al., JoVE, e2860 (2011)). D-TZP and TZP was administered IV at 10 mg/kg PMB eq. 2 h post-CLP and every subsequent 2 days a maximum total of three times. Free PMB was given at 5 mg/kg IV in the same schedule as D-TZP.
Therapeutic efficacy in polymicrobial sepsis model by cecal ligation and puncture (CLP). The efficacy of D-TZP and TZP was evaluated in a cecal ligation and puncture (CLP) model, the gold standard of polymicrobial sepsis model. The abdomen of 6 week-old C57BL/6 male was cleaned with a hair-removal cream (Nair, Church & Dwight Co., Inc). The mice were anesthetized by 2.5% isofluorane. Betadine 0.5% solution and 70% isopropyl alcohol swap were alternately applied three times to disinfect the shaved abdomen. Midline laparotomy was performed under an aseptic condition to exteriorize the cecum. The cecum was ligated below the ileocecal valve with a 5-0 suture (perma-hand silk, Ethicon) and perforated twice with 20 G needle on the same side of the cecum to release feces into the peritoneal cavity. After perforation, the intestines were returned to abdominal cavity. […] Animals were monitored as described in the endotoxemia model.

Take polymyxin B [PMB]: the “PI fluorescence (membrane damage)” value with THP-1 monocytes and in the data set with J774a.1 macrophages was “dose-dependent PI fluorescence signal” each time. The “bacterial membrane morphology by SEM” value in data set [1] is recorded as “induced deformation of bacterial membrane”. Besides, the survival in data set [2] is 33%.

Values taken from patent publication US11865158B2, “Process and composition matter of nanoparticle formulation for systemic treatment of sepsis” (PURDUE RESEARCH FOUNDATION, priority 2019, dated 2024).
